Where a name gives a salt, the structure may show the parent alone. Read-outs that look alike come from different tables or passages of the source.
Assay: MIC of test compounds against various organisms
Type: cell-based
Description: The MIC (μg/ml) of test compounds against various organisms was determined including: S. epidermidis CL7, S. aureus WCUH29, S. pneumoniae 1629, S. pyogenes CN10, H. influenzae ATCC 49247, E.faecalis 2, M. catarrhalis Ravasio, E. coli 7623.

[1] = versus all these organisms (the eight strains of b406), read-out: MIC
[2] = versus some of these organisms (of the eight strains; which ones not given), read-out: MIC

| MIC [2] | SMILES | other results |
| --- | --- | --- |
| – | COc1ccc2nccc(NC(=O)[C@]3(O)C=C[C@@H](NCc4ccc5c(n4)NC(=O)CS5)CC3)c2n1 (racemic) [Example 1, (1R,4S)-1-Hydroxy-4-[(3-oxo-3,4-dihydro-2H-pyrido[3,2-b][1,4]thiazin-6-ylmethyl)-amino]-cyclohex-2-enecarboxylic acid (6methoxy-[1,5]naphthyridin-4-yl)-amide dihydrochloride and (1S,4R)-1-Hydroxy-4-[(3-oxo-3,4-dihydro-2H-pyrido[3,2-b][1,4]thiazin-6-ylmethyl)-amino]-cyclohex-2-enecarboxylic acid (6-methoxy-[1,5]naphthyridin-4-yl)-amide dihydrochloride] | MIC: ≤ 2 µg/mL |
| – | COc1ccc2nccc(NC(=O)[C@]3(O)C=C[C@@H](NCc4ccc5c(n4)NC(=O)CO5)CC3)c2n1 (racemic) [Example 2, (1R,4S)-1-Hydroxy-4-[(3-oxo-3,4-dihydro-2H-pyrido[3,2-b][1,4]oxazin-6-ylmethyl)-amino]-cyclohex-2-enecarboxylic acid (6-methoxy-[1,5]naphthyridin-4-yl)-amide dihydrochloride and (1S,4R)-1-Hydroxy-4-[(3-oxo-3,4-dihydro-2H-pyrido[3,2-b][1,4]oxazin-6-ylmethyl)-amino]-cyclohex-2-enecarboxylic acid (6-methoxy-[1,5]naphthyridin-4-yl)-amide dihydrochloride] | MIC: ≤ 2 µg/mL |
| – | COc1ccc2nccc(NC(=O)[C@@]3(O)C=C[C@H](NCc4cc5c(cn4)OCCO5)CC3)c2n1 [Example 3] | MIC [1]: ≤ 2 µg/mL |
| – | COc1ccc2nccc(NC(=O)[C@@]3(O)C=C[C@H](NCc4cnc5c(c4)OCCO5)CC3)c2n1 [Example 5] | MIC [1]: ≤ 2 µg/mL |
| ≤ 1 µg/mL | COc1ccc2nccc(NC(=O)[C@@]3(O)C=C[C@H](NCc4ccc5c(n4)OCCO5)CC3)c2n1 [Example 6] | – |
| ≤ 1 µg/mL | COc1ccc2nccc(NC(=O)[C@@]3(O)C=C[C@H](NCc4ncc5c(n4)OCCO5)CC3)c2n1 [Example 7] | – |
| ≤ 1 µg/mL | COCCOc1c(F)ccc2nccc(NC(=O)[C@@]3(O)C=C[C@H](NCc4cc5c(cn4)OCCO5)CC3)c12 [Example 11] | – |
| ≤ 1 µg/mL | COc1ccc2nccc(NC(=O)[C@@]3(O)C=C[C@H](NCc4cc5c(cn4)OCCO5)CC3)c2c1F [Example 12] | – |

Reference: patent US20060040925A1, “Aminocyclohexene quinolines and their azaisosteric analogues with antibacterial activity” (priority 2002, published 2006)
